The target in one experiment is human TLR9 (Homo sapiens (Human), UniProt Q9NR96). Briefly: TLR9 inhibition reporter assay (HEK-Blue cells, SEAP reporter, ODN2006 stimulation).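 Also: SEAP driven by IFN-β minimal promoter with five NF-κB and AP-1 sites, compounds 0.05 nM–50 µM in DMSO, 22 h, inhibition scaled between agonist plus DMSO and reference inhibitor wells.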 Background: In a reporter assay the amount or activity of a reporter protein is the signal.
In the next experiment the target is human TLR8 (Homo sapiens (Human), UniProt Q9NR97). Briefly: TLR8 inhibition reporter assay (HEK-Blue cells, SEAP reporter, R848 stimulation).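 Also: SEAP under an IFN-β minimal promoter carrying five NF-κB and AP-1 sites, 22 h at 37 °C, doses 0.05 nM–50 µM, inhibition scaled between agonist-plus-DMSO and reference-inhibitor wells.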 The settings on record: read-out: TLR8 IC50, R848 15.9 μM.
Chain of human TLR8 (Q9NR97 27-1041): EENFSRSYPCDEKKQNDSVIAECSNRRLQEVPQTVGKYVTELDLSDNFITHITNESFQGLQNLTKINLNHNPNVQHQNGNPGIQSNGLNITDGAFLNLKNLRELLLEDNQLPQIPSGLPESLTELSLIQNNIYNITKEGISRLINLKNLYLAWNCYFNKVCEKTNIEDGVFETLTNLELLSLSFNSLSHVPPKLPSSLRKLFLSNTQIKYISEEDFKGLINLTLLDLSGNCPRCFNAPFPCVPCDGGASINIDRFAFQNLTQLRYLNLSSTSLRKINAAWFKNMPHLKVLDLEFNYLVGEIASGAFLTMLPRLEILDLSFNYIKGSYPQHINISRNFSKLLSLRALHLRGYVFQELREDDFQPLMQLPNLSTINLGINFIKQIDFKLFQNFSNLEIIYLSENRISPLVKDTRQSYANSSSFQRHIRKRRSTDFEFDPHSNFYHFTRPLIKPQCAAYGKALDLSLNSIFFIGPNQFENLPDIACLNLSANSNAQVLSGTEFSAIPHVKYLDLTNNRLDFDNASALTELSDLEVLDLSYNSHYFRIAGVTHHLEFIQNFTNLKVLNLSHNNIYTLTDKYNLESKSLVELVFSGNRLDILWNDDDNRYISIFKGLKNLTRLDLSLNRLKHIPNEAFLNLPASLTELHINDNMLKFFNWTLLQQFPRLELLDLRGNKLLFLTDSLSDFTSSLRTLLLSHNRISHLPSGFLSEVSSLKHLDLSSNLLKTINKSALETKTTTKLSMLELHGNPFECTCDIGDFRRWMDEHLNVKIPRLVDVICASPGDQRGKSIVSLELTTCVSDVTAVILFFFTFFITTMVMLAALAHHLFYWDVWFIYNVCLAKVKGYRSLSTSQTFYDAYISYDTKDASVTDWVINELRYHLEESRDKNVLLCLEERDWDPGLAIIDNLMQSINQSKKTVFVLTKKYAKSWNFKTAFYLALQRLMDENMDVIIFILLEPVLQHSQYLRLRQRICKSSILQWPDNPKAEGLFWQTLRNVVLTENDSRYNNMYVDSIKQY
In a further experiment the target is human TLR7 (Homo sapiens (Human), UniProt Q9NYK1). Briefly: TLR7 inhibition reporter assay (HEK-Blue cells, SEAP reporter, gardiquimod stimulation). The format is cell-based. The settings on record: gardiquimod 7.5 μM.
Chain of human TLR7 (Q9NYK1 27-1049): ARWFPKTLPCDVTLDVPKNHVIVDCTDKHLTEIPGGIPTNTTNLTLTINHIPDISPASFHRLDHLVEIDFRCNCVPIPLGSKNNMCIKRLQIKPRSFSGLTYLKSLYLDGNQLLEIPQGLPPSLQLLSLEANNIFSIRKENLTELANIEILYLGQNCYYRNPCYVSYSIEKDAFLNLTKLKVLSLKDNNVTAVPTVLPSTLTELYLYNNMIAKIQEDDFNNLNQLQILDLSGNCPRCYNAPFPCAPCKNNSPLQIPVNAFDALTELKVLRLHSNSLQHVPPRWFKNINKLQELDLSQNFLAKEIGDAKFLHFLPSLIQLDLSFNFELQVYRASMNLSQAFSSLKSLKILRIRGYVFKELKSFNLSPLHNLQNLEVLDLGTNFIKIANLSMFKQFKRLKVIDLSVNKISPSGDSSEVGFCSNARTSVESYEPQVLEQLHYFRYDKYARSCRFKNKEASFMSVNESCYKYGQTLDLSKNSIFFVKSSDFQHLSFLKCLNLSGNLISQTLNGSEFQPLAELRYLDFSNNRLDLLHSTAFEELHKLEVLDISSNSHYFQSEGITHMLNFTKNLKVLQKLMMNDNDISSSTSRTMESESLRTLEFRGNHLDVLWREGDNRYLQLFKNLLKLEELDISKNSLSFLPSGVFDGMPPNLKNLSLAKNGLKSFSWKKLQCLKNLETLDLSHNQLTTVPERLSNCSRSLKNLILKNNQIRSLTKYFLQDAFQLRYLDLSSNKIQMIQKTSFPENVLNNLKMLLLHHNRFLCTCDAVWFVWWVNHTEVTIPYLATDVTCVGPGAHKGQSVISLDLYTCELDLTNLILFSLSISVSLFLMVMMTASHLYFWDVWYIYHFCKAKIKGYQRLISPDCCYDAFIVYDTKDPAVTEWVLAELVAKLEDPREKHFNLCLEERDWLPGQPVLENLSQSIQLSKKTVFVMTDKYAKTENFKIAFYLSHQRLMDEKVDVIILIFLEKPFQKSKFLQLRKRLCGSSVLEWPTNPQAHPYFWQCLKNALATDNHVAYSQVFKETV
[1] abbreviates: read-out: TLR9 IC50, HEK-Blue cells overexpressing human TLR9, SEAP reporter, ODN2006 5 nM.
Setting [2] is: HEK-Blue cells overexpressing human TLR8, SEAP reporter.
Setting [3] is: HEK-Blue cells overexpressing human TLR7, SEAP reporter.
Where [4] appears, read: read-out: TLR9 IC50, HEK-Blue cells, ODN2006 5 nM.

Read-outs that look alike come from different tables or passages of the source.

Chain of human TLR9 (Q9NR96 26-1032): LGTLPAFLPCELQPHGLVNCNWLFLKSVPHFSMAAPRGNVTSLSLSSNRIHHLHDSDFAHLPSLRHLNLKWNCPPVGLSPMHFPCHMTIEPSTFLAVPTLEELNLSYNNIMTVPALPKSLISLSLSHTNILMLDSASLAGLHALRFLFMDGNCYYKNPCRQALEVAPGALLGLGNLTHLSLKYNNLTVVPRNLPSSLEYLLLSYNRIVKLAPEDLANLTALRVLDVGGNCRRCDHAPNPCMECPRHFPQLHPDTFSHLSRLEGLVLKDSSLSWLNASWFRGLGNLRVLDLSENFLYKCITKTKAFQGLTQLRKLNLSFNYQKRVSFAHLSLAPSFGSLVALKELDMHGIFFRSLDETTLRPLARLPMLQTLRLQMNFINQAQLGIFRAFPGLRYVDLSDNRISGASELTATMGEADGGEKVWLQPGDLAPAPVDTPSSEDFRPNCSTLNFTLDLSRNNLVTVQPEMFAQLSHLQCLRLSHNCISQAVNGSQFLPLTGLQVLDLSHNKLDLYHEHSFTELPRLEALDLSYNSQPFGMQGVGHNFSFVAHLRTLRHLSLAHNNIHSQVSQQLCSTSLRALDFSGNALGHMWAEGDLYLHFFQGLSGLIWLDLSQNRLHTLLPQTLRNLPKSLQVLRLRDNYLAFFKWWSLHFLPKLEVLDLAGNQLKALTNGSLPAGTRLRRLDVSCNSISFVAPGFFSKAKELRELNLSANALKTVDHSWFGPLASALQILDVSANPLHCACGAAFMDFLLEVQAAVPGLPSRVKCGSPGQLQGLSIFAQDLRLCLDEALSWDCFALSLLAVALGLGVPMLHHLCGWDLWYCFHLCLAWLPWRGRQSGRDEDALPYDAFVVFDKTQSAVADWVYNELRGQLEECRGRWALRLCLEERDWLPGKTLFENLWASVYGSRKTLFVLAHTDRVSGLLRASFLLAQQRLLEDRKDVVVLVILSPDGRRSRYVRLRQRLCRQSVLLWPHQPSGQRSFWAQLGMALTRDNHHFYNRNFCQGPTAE
Method for human TLR7: (§1) HEK-Blue™-cells (Invivogen) overexpressing human TLR7, TLR8 or TLR9 receptors were used for screening inhibitors of these receptors using an inducible SEAP (secreted embryonic alkaline phosphatase) reporter gene under the control of the IFN-β minimal promoter fused to five NF-κB and AP-1-binding sites. Briefly, cells are seeded into Greiner 384 well plates (15000 cells per well for TLR7, 20,000 for TLR8 and 25,000 for TLR9) and then treated with test compounds in DMSO to yield a final dose response concentration range of 0.05 nM-50 μM. After a 30 minute compound pre-treatment at room temperature, the cells are then stimulated with a TLR7 ligand (gardiquimod at a final concentration of 7.5 μM), TLR8 ligand (R848 at a final concentration of 15.9 μM) or TLR9 ligand (ODN2006 at a final concentration of 5 nM) to activate NF-κB and AP-1 which induce the production of SEAP. After a 22 hour incubation at 37° C., 5% CO2, SEAP levels are determined with the addition of HEK-Blue™ Detection reagent (Invivogen), a cell culture medium that allows for detection of SEAP, according to manufacturer's specifications.
Method for human TLR8: as §1
Method for human TLR9: as §1

Consider `CC(C)c1c(-c2cn(CCS(C)(=O)=O)c3ncccc23)[nH]c2ccc(C3CCC(NC4CCOCC4)CC3)nc12` (centres unmarked) [Example 271], for which the IC50 (in general, the concentration at which inhibition is half-maximal) on human TLR9 (setting [1]) was found to be 228 nM; on human TLR8 (setting [2]), 40 nM; on human TLR7 (setting [3]) it was 120 nM.
As for `CCCN(CCC)C1CCC(Oc2ccc3[nH]c(-c4cc(OC)c5ncnn5c4)c(C(C)C)c3n2)CC1` (centres unmarked) [Example 605, 4-((3-isopropyl-2-(8-methoxy-[1,2,4]triazolo[1,5-a]pyridin-6-yl)-1H-pyrrolo[3,2-b]pyridin-5-yl)oxy)-N,N-dipropylcyclohexan-1-amine], the IC50 at human TLR9 was 4240 nM; against human TLR7 (setting [3]), 13 nM.
As for `Cc1c(-c2[nH]c3ccc(N4C[C@@H]5C[C@H]4CN5CC(N)=O)nc3c2C(C)C)cn2ncnc2c1C` [Example 774], the figures for the IC50 at human TLR9 (setting [1]), at human TLR8 (setting [2]) and against human TLR7 (setting [3]) were 18600 nM, 5.7 nM and 3.7 nM, respectively.
Regarding `CCN(CCS(C)(=O)=O)C1CCC(c2ccc3[nH]c(-c4cn5ncnc5c(C)c4C)c(C(C)C)c3n2)CC1` (centres unmarked) [Example 460], the IC50 on human TLR9 (setting [1]) was 2060 nM; at human TLR8 (setting [2]) it was 0.79 nM; against human TLR7 (setting [3]), 0.88 nM.
With `Cc1c(-c2[nH]c3ccc(C4CC5(C4)CN(C(C)C)C5)nc3c2C(C)C)cn2ncnc2c1C` [Example 1023], the figures for the IC50 at human TLR9 (setting [4]), at human TLR8 (HEK-Blue cells) and against human TLR7 (HEK-Blue cells) were 6940 nM, 3.6 nM and 10 nM, respectively.
For the compound `Cc1c(-c2[nH]c3ccc(N4C[C@@H]5C[C@H]4CN5C(=O)CN(C)C)nc3c2C(C)C)cn2ncnc2c1C` [Example 784], the IC50 stood at 4530 nM at human TLR9 (setting [1]), 9.4 nM at human TLR8 (setting [2]) and 2.9 nM on human TLR7 (setting [3]).
For `Cc1c(-c2[nH]c3ccc(N4C[C@H]5CCC[C@@H](C4)N5C(=O)CN(C)C)nc3c2C(C)C)cn2ncnc2c1C` [Example 750], in that order: 6140 nM, 3.7 nM and 1.2 nM.
`Cc1c(-c2[nH]c3ccc(C4CC5(C4)CN(C)C5)nc3c2C(C)C)cn2ncnc2c1C` [Example 1022]: the IC50 came out at 3650 nM on human TLR9 (setting [4]), 1.9 nM on human TLR8 (HEK-Blue cells) and 0.91 nM against human TLR7 (HEK-Blue cells).
For `Cc1c(-c2[nH]c3ccc(N4C[C@@H]5C[C@H]4CN5CCCS(C)(=O)=O)nc3c2C(C)C)cn2ncnc2c1C` [Example 778], the IC50 on human TLR9 (setting [1]) was determined as 7910 nM; on human TLR8 (setting [2]) it was 2.3 nM; on human TLR7 (setting [3]), 2.7 nM.
`Cc1c(-c2[nH]c3ccc(N4C[C@H]5C[C@@H]4CN5C4COC4)nc3c2C(C)C)cn2ncnc2c1C` [Example 768]: the IC50 was determined as 21000 nM on human TLR9 (setting [1]), 9.6 nM at human TLR8 (setting [2]) and 6.4 nM on human TLR7 (setting [3]).
For the compound `Cc1c(-c2[nH]c3ccc(N4CCN(C(=O)CN(C)C)[C@H](C)C4)nc3c2C(C)C)cn2ncnc2c1C` [Example 849], the IC50 turned out to be 8120 nM at human TLR9 (setting [4]), 1.6 nM on human TLR8 (HEK-Blue cells) and 0.53 nM against human TLR7 (HEK-Blue cells).
With `Cc1c(-c2[nH]c3ccc(N4C[C@@H]5C[C@H]4CN5C4COC4)nc3c2C(C)C)cn2ncnc2c1C` [Example 779], the IC50 at human TLR9 (setting [1]) is 34500 nM; on human TLR8 (setting [2]), 11 nM; on human TLR7 (setting [3]), 7.3 nM.
For `Cc1c(-c2[nH]c3ccc(N4C[C@@H]5C[C@H]4CN5CCS(C)(=O)=O)nc3c2C(C)C)cn2ncnc2c1C` [Example 777], in that order: 14800 nM, 7.4 nM and 9.2 nM.
For `Cc1c(-c2[nH]c3ccc(N4C[C@H]5C[C@@H]4CN5C(C)C)nc3c2C(C)C)cn2ncnc2c1C` [Example 786] the same measures were 14700 nM, 12 nM and 7.7 nM.
For `Cc1c(-c2[nH]c3ccc(N4C[C@H]5C[C@@H]4CN5CCS(C)(=O)=O)nc3c2C(C)C)cn2ncnc2c1C` [Example 764], in that order: 14400 nM, 2.8 nM and 1.9 nM.
With `Cc1c(-c2[nH]c3ccc(N4C[C@H]5C[C@@H]4CN5CC(N)=O)nc3c2C(C)C)cn2ncnc2c1C` [Example 762], the IC50 at human TLR9 (setting [1]) came to 18300 nM; at human TLR8 (setting [2]), 8.6 nM; on human TLR7 (setting [3]) it was 3.8 nM.
For `Cc1c(-c2[nH]c3ccc(N4C[C@H]5C[C@@H]4CN5CCC(=O)N(C)C)nc3c2C(C)C)cn2ncnc2c1C` [Example 767] the same measures were 8300 nM, 2.9 nM and 5.4 nM.
For `Cc1c(-c2[nH]c3ccc(N4C[C@@H]5C[C@H]4CN5CCC(=O)N(C)C)nc3c2C(C)C)cn2ncnc2c1C` [Example 776], in that order: 13100 nM, 5.3 nM and 6 nM.
For the compound `Cc1c(-c2[nH]c3ccc(N4C[C@H]5C[C@@H]4CN5CC#N)nc3c2C(C)C)cn2ncnc2c1C` [Example 766], the IC50 on human TLR9 (setting [1]) worked out at 3510 nM; on human TLR8 (setting [2]), 1.2 nM; against human TLR7 (setting [3]) it was 0.86 nM.
Consider `Cc1cc(-c2[nH]c3ccc(C4CCN(CC(N)=O)CC4)nc3c2C(C)C)cn2ncnc12` [Example 559], for which the values for the IC50 on human TLR9 (setting [1]), at human TLR8 (setting [2]) and against human TLR7 (setting [3]) were 4920 nM, 4.6 nM and 0.72 nM, respectively.
For `Cc1c(-c2[nH]c3ccc(N4C[C@@H]5C[C@H]4CN5CCC(N)=O)nc3c2C(C)C)cn2ncnc2c1C` [Example 775], in that order: 8450 nM, 4.4 nM and 3.8 nM.
For `COc1cc(-c2[nH]c3ccc(CCC4CN(Cc5c[nH]nn5)C4)nc3c2C(C)C)cn2ncnc12` [Example 688] the same measures were 177 nM, 23 nM and 8.4 nM.
Regarding `Cc1c(-c2[nH]c3ccc(N4C[C@@H](C)N(CCCS(C)(=O)=O)C[C@@H]4C)nc3c2C(C)C)cn2ncnc2c1C` [Example 846], the results for the IC50 at human TLR9 (setting [4]), at human TLR8 (HEK-Blue cells) and on human TLR7 (HEK-Blue cells) were 22600 nM, 1.2 nM and 0.55 nM, respectively.
In the case of `Cc1c(-c2[nH]c3ccc(N4C[C@@H]5C[C@H]4CN5C(=O)CCN(C)C)nc3c2C(C)C)cn2ncnc2c1C` [Example 785], the values for the IC50 at human TLR9 (setting [1]), at human TLR8 (setting [2]) and at human TLR7 (setting [3]) were 4680 nM, 13 nM and 8 nM, respectively.
For `Cc1c(-c2[nH]c3ccc(N4C[C@H]5C[C@@H]4CN5C(=O)CCN(C)C)nc3c2C(C)C)cn2ncnc2c1C` [Example 773], in that order: 2710 nM, 4.6 nM and 3 nM.
In the case of `Cc1c(-c2[nH]c3ccc(N4C[C@H]5CCC[C@@H](C4)N5CCS(C)(=O)=O)nc3c2C(C)C)cn2ncnc2c1C` [Example 751], the IC50 on human TLR9 (setting [1]) was 26000 nM; on human TLR8 (setting [2]) it was 7.3 nM; at human TLR7 (setting [3]) it was 13 nM.
Take `Cc1c(-c2[nH]c3ccc(N4C[C@H]5C[C@@H]4CN5CCCS(C)(=O)=O)nc3c2C(C)C)cn2ncnc2c1C` [Example 765]: the IC50 came out at 10300 nM at human TLR9 (setting [1]), 3.5 nM on human TLR8 (setting [2]) and 5.6 nM on human TLR7 (setting [3]).
For `Cc1c(-c2[nH]c3ccc(N4C[C@@H]5C[C@H]4CN5Cc4cn(C)nn4)nc3c2C(C)C)cn2ncnc2c1C` [Example 787], in that order: 12300 nM, 4.9 nM and 9.4 nM.
For `Cc1c(-c2[nH]c3ccc(N4C[C@@H]5C[C@H]4CN5C(C)C)nc3c2C(C)C)cn2ncnc2c1C` [Example 783], in that order: 8380 nM, 3.9 nM and 1.8 nM.
For `Cc1c(-c2[nH]c3ccc(N4C[C@@H]5C[C@H]4CN5C4CCS(=O)(=O)CC4)nc3c2C(C)C)cn2ncnc2c1C` [Example 781] the same measures were 14400 nM, 18 nM and 11 nM.
Consider `Cc1c(-c2[nH]c3ccc(N4[C@@H]5CC[C@H]4CN(CCC(N)=O)C5)nc3c2C(C)C)cn2ncnc2c1C` [Example 749], for which the figures for the IC50 on human TLR9 (setting [1]), at human TLR8 (setting [2]) and against human TLR7 (setting [3]) were 14900 nM, 2.6 nM and 2.9 nM, respectively.
For `Cc1c(-c2[nH]c3ccc(N4C[C@H]5C[C@@H]4CN5C4CCS(=O)(=O)CC4)nc3c2C(C)C)cn2ncnc2c1C` [Example 770], in that order: 18200 nM, 24 nM and 11 nM.
For `Cc1c(-c2[nH]c3ccc(N4C[C@@H]5C[C@H]4CN5C4CCOCC4)nc3c2C(C)C)cn2ncnc2c1C` [Example 780] the same measures were 5220 nM, 5.4 nM and 1.9 nM.
For `CC(C)c1c(-c2cn(CC#N)c3ncccc23)[nH]c2ccc(C3CCC(NC4CCOCC4)CC3)nc12` (centres unmarked) [Example 274], in that order: 474 nM, 3.7 nM and 8.5 nM.
Consider `Cc1c(-c2[nH]c3ccc(N4CCC(N(C)Cc5ncccn5)CC4)nc3c2C(C)C)cn2cnnc2c1C` [Example 78], for which the half-inhibitory concentration (IC50) on human TLR9 (setting [1]) is 3170 nM; at human TLR8 (setting [2]), 10 nM; at human TLR7 (setting [3]), 3.7 nM.
For `Cc1c(-c2[nH]c3ccc(N4C[C@H]5C[C@@H]4CN5CCC(N)=O)nc3c2C(C)C)cn2ncnc2c1C` [Example 763] the same measures were 4580 nM, 2.6 nM and 3.8 nM.

The values are drawn from patent publication US10730877B2, “4-Azaindole compounds” (BRISTOL-MYERS SQUIBB COMPANY, priority 2017, dated 2020).
